In ChEMBL document CHEMBL2074289, “Inhibition of the human organic anion transporter 1 by the caffeine metabolite 1-methylxanthine” (Biochem Biophys Res Commun, 2004):

Molecular target: T1, OAT1 (Solute carrier family 22 member 6, SLC22A6) (Homo sapiens, UniProt Q4U2R8)
T1 sequence (Q4U2R8 whole entry): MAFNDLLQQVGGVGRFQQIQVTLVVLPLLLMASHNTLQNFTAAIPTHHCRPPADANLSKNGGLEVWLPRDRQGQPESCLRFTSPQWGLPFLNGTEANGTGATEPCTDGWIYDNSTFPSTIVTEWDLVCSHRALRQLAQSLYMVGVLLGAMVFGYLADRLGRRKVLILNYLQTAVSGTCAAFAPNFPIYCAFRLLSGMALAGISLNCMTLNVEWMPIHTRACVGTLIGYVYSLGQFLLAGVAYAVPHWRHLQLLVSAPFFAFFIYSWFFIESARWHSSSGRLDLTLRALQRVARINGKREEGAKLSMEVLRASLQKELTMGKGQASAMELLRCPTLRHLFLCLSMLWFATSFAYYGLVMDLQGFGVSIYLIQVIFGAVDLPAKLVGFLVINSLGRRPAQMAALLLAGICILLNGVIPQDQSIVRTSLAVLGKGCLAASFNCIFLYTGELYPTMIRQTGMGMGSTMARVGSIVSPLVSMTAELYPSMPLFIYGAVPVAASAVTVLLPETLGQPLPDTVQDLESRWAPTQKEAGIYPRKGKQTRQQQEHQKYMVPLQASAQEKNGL
Assay: TP_TRANSPORTER: inhibition of 6-Carboxyfluorescein uptake by 1-methylxanthine at a concentration of 500uM in OAT1-expressing cell
Format: functional
Design: scale not given: the % may be the effect or the level left
Settings: OAT1-expressing cells, probe 6-Carboxyfluorescein; read-out: Activity

## Cn1c(=O)[nH]c2nc[nH]c2c1=O [1-METHYLXANTHINE]
  activity at 500 µM: 50%
